Test results taken from PubChem BioAssay (NCI).
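Dose response: 5 concentrations. Exposure: 48 h. Format: 96-well plates. Endpoint: linear interpolation; highest concentration if not reached. TGI: concentration producing complete growth inhibition.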

What was measured:
Assay in all cases: NCI anticancer screen, dose series, 48 h
PC-3 prostate = tested on: PC-3 prostate
MDA-MB-435 = tested on: MDA-MB-435
NCI-H460 lung = tested on: NCI-H460 lung
U251 CNS = tested on: U251 CNS
NCI-H522 lung = tested on: NCI-H522 lung
ACHN renal = tested on: ACHN renal
MDA-MB-231 breast = tested on: MDA-MB-231 breast
SK-MEL-28 melanoma = tested on: SK-MEL-28 melanoma
OVCAR-8 ovarian = tested on: OVCAR-8 ovarian
K-562 leukemia = tested on: K-562 leukemia
DU-145 prostate = tested on: DU-145 prostate
UACC-62 melanoma = tested on: UACC-62 melanoma
T-47D breast = tested on: T-47D breast
MOLT-4 leukemia = tested on: MOLT-4 leukemia
RXF 393 renal = tested on: RXF 393 renal
LOX IMVI melanoma = tested on: LOX IMVI melanoma
SNB-75 CNS = tested on: SNB-75 CNS
SF-539 CNS = tested on: SF-539 CNS
786-0 renal = tested on: 786-0 renal

Work on `Cc1cc(=O)oc2c(CNC(CO)C(=O)O)c(O)ccc12` (stereo not given) yielded a TGI (PC-3 prostate) of over 100 µM, a TGI (MDA-MB-435) of over 100 µM and a TGI (NCI-H460 lung) of over 100 µM. It also gave a TGI (U251 CNS) of over 100 µM, a TGI (NCI-H522 lung) of over 100 µM and a TGI (ACHN renal) of over 100 µM. The TGI (MDA-MB-231 breast) was over 100 µM, the TGI (SK-MEL-28 melanoma) was over 100 µM and the TGI (OVCAR-8 ovarian) was over 100 µM. The TGI (K-562 leukemia) was over 100 µM, the TGI (DU-145 prostate) was over 100 µM and the TGI (UACC-62 melanoma) was over 100 µM. It also gave a TGI (T-47D breast) of over 100 µM, a TGI (MOLT-4 leukemia) of over 100 µM and a TGI (RXF 393 renal) of over 100 µM. The TGI (LOX IMVI melanoma) was over 100 µM, the TGI (SNB-75 CNS) was over 100 µM and the TGI (SF-539 CNS) was over 100 µM. It also gave a TGI (786-0 renal) of over 100 µM.
`N/N=C(\c1nc2ccc([N+](=O)[O-])cc2[nH]c1=O)C(O)c1ccc(Cl)c(Cl)c1` (stereo not given) was tested, and the TGI (PC-3 prostate) was over 100 µM, the TGI (MDA-MB-435) was over 100 µM and the TGI (NCI-H460 lung) was over 100 µM. It also gave a TGI (U251 CNS) of over 100 µM, a TGI (NCI-H522 lung) of over 100 µM and a TGI (ACHN renal) of over 100 µM. For the same compound, the TGI (MDA-MB-231 breast) was over 100 µM, the TGI (SK-MEL-28 melanoma) was over 100 µM and the TGI (OVCAR-8 ovarian) was over 100 µM. The TGI (K-562 leukemia) was over 100 µM, the TGI (DU-145 prostate) was over 100 µM and the TGI (UACC-62 melanoma) was over 100 µM. The TGI (T-47D breast) was over 100 µM, the TGI (MOLT-4 leukemia) was over 100 µM and the TGI (RXF 393 renal) was over 100 µM. The TGI (LOX IMVI melanoma) was over 100 µM, the TGI (SNB-75 CNS) was over 100 µM and the TGI (SF-539 CNS) was over 100 µM. For the same compound, the TGI (786-0 renal) was over 100 µM.
With `CCOC(=O)C1(C#N)C(=O)c2cc[n+](CC[n+]3ccc4c(c3)C(=O)C(C#N)(C(=O)OCC)C4=O)cc2C1=O` (stereo not given) the TGI (PC-3 prostate) was over 100 µM, the TGI (MDA-MB-435) was over 100 µM and the TGI (NCI-H460 lung) was over 100 µM. For the same compound, the TGI (U251 CNS) was over 100 µM, the TGI (NCI-H522 lung) was over 100 µM and the TGI (ACHN renal) was over 100 µM. It also gave a TGI (MDA-MB-231 breast) of over 100 µM, a TGI (SK-MEL-28 melanoma) of over 100 µM and a TGI (OVCAR-8 ovarian) of over 100 µM. It also gave a TGI (K-562 leukemia) of over 100 µM, a TGI (DU-145 prostate) of over 100 µM and a TGI (UACC-62 melanoma) of over 100 µM. For the same compound, the TGI (T-47D breast) was over 100 µM, the TGI (MOLT-4 leukemia) was over 100 µM and the TGI (RXF 393 renal) was over 100 µM. The TGI (LOX IMVI melanoma) was over 100 µM, the TGI (SNB-75 CNS) was over 100 µM and the TGI (SF-539 CNS) was over 100 µM. For the same compound, the TGI (786-0 renal) was over 100 µM.
`Cc1c2c(nc3ccccc13)C(=O)c1cccnc1C2=O` was tested, and the TGI (PC-3 prostate) was 73.1 µM, the TGI (MDA-MB-435) was 3.2 µM and the TGI (NCI-H460 lung) was 13.1 µM. The TGI (U251 CNS) was over 100 µM, the TGI (NCI-H522 lung) was 47.8 µM and the TGI (ACHN renal) was over 100 µM. The TGI (MDA-MB-231 breast) was over 100 µM, the TGI (SK-MEL-28 melanoma) was 94.7 µM and the TGI (OVCAR-8 ovarian) was 77.9 µM. The TGI (K-562 leukemia) was over 100 µM, the TGI (DU-145 prostate) was over 100 µM and the TGI (UACC-62 melanoma) was 10.1 µM. For the same compound, the TGI (T-47D breast) was 87.8 µM, the TGI (MOLT-4 leukemia) was 64.7 µM and the TGI (RXF 393 renal) was over 100 µM. For the same compound, the TGI (LOX IMVI melanoma) was 35.2 µM, the TGI (SNB-75 CNS) was 91.7 µM and the TGI (SF-539 CNS) was 54.2 µM. The TGI (786-0 renal) was over 100 µM.
Work on `C=C1C[C@@H]2O[C@H]3[C@H]4[C@@H](C[C@@H](C)[C@@H](OC(C)=O)[C@H]42)[C@@H](C)CO[C@@]3(C)[C@H](OC(=O)CCCCCCC)C[C@H]1O` yielded a TGI (PC-3 prostate) of 28.7 µM, a TGI (MDA-MB-435) of 34.8 µM and a TGI (NCI-H460 lung) of 30.1 µM. The TGI (U251 CNS) was 30.6 µM, the TGI (NCI-H522 lung) was 34.4 µM and the TGI (ACHN renal) was 35 µM. For the same compound, the TGI (MDA-MB-231 breast) was 27 µM, the TGI (SK-MEL-28 melanoma) was 32.7 µM and the TGI (OVCAR-8 ovarian) was 31.4 µM. It also gave a TGI (K-562 leukemia) of over 100 µM, a TGI (DU-145 prostate) of 28.3 µM and a TGI (UACC-62 melanoma) of 31.4 µM. It also gave a TGI (T-47D breast) of 24.6 µM, a TGI (MOLT-4 leukemia) of 52.7 µM and a TGI (RXF 393 renal) of 36.1 µM. It also gave a TGI (LOX IMVI melanoma) of 26.6 µM, a TGI (SNB-75 CNS) of 32.6 µM and a TGI (SF-539 CNS) of 40.5 µM. For the same compound, the TGI (786-0 renal) was 28.9 µM.
In the case of `O=C1/C(=C/c2ccc(O)cc2)CCc2ccc([N+](=O)[O-])cc21`, the TGI (PC-3 prostate) is reported as over 100 µM, the TGI (MDA-MB-435) is reported as over 100 µM and the TGI (NCI-H460 lung) is reported as over 100 µM. It also gave a TGI (U251 CNS) of over 100 µM, a TGI (NCI-H522 lung) of over 30.8 µM and a TGI (ACHN renal) of over 100 µM. The TGI (MDA-MB-231 breast) was over 100 µM, the TGI (SK-MEL-28 melanoma) was over 100 µM and the TGI (OVCAR-8 ovarian) was over 100 µM. It also gave a TGI (K-562 leukemia) of over 100 µM, a TGI (DU-145 prostate) of over 100 µM and a TGI (UACC-62 melanoma) of over 100 µM. For the same compound, the TGI (T-47D breast) was over 100 µM, the TGI (MOLT-4 leukemia) was over 100 µM and the TGI (RXF 393 renal) was over 92.3 µM. The TGI (LOX IMVI melanoma) was over 100 µM, the TGI (SNB-75 CNS) was over 100 µM and the TGI (SF-539 CNS) was over 100 µM. The TGI (786-0 renal) was over 100 µM.
Compound `Cc1cc2nc(C=C(C(F)(F)F)C(F)(F)F)sc2cc1C` has a TGI (PC-3 prostate) of 4.98 µM, a TGI (MDA-MB-435) of 7.07 µM and a TGI (NCI-H460 lung) of 16 µM. For the same compound, the TGI (U251 CNS) was 4.21 µM, the TGI (NCI-H522 lung) was 1.01 µM and the TGI (ACHN renal) was 7.48 µM. For the same compound, the TGI (MDA-MB-231 breast) was 23.9 µM, the TGI (SK-MEL-28 melanoma) was 14.5 µM and the TGI (OVCAR-8 ovarian) was 4.4 µM. The TGI (K-562 leukemia) was over 100 µM, the TGI (DU-145 prostate) was 10.2 µM and the TGI (UACC-62 melanoma) was 4.98 µM. For the same compound, the TGI (T-47D breast) was 1.78 µM, the TGI (MOLT-4 leukemia) was over 100 µM and the TGI (RXF 393 renal) was 3.68 µM. The TGI (LOX IMVI melanoma) was 4.99 µM, the TGI (SNB-75 CNS) was 10.3 µM and the TGI (SF-539 CNS) was 4.31 µM. For the same compound, the TGI (786-0 renal) was 5.17 µM.
With `O=C(O)CC(NC(=O)/C(=C/c1ccccc1)NC(=O)c1ccccc1)C(=O)O` (stereo not given) the TGI (PC-3 prostate) was over 100 µM, the TGI (MDA-MB-435) was over 100 µM and the TGI (NCI-H460 lung) was over 100 µM. The TGI (U251 CNS) was over 100 µM, the TGI (NCI-H522 lung) was over 100 µM and the TGI (ACHN renal) was over 100 µM. It also gave a TGI (MDA-MB-231 breast) of over 100 µM, a TGI (SK-MEL-28 melanoma) of over 100 µM and a TGI (OVCAR-8 ovarian) of over 100 µM. For the same compound, the TGI (K-562 leukemia) was over 100 µM, the TGI (DU-145 prostate) was over 100 µM and the TGI (UACC-62 melanoma) was over 100 µM. The TGI (T-47D breast) was over 100 µM, the TGI (MOLT-4 leukemia) was over 100 µM and the TGI (RXF 393 renal) was over 100 µM. For the same compound, the TGI (LOX IMVI melanoma) was over 100 µM, the TGI (SNB-75 CNS) was over 100 µM and the TGI (SF-539 CNS) was over 100 µM. The TGI (786-0 renal) was over 100 µM.
Compound `O=C(NCCCNCCN1C(=O)c2cccc3cc([N+](=O)[O-])cc(c23)C1=O)c1cc(-c2ccccc2)nc2ccccc12` has a TGI (PC-3 prostate) of 16.7 µM, a TGI (MDA-MB-435) of 2.91 µM and a TGI (NCI-H460 lung) of 12.6 µM. For the same compound, the TGI (U251 CNS) was 9.12 µM, the TGI (NCI-H522 lung) was 9.95 µM and the TGI (ACHN renal) was 14.5 µM. It also gave a TGI (MDA-MB-231 breast) of 8.17 µM, a TGI (SK-MEL-28 melanoma) of 3.44 µM and a TGI (OVCAR-8 ovarian) of 17 µM. It also gave a TGI (K-562 leukemia) of 2.5 µM, a TGI (DU-145 prostate) of 17.3 µM and a TGI (UACC-62 melanoma) of 17.4 µM. The TGI (T-47D breast) was 23.7 µM, the TGI (MOLT-4 leukemia) was 6.01 µM and the TGI (RXF 393 renal) was 3.34 µM. The TGI (LOX IMVI melanoma) was 2.93 µM, the TGI (SNB-75 CNS) was 14.1 µM and the TGI (SF-539 CNS) was 5.07 µM. It also gave a TGI (786-0 renal) of 9.04 µM.
In the case of `O/N=C(/CC(O)(C(F)(F)F)C(F)(F)F)c1ccccc1`, the TGI (PC-3 prostate) is reported as over 10 µM, the TGI (MDA-MB-435) is reported as over 10 µM and the TGI (NCI-H460 lung) is reported as over 10 µM. For the same compound, the TGI (U251 CNS) was over 10 µM, the TGI (NCI-H522 lung) was over 10 µM and the TGI (ACHN renal) was over 10 µM. It also gave a TGI (MDA-MB-231 breast) of over 10 µM, a TGI (SK-MEL-28 melanoma) of over 10 µM and a TGI (OVCAR-8 ovarian) of over 10 µM. It also gave a TGI (K-562 leukemia) of over 10 µM, a TGI (DU-145 prostate) of over 10 µM and a TGI (UACC-62 melanoma) of over 10 µM. It also gave a TGI (T-47D breast) of over 10 µM, a TGI (MOLT-4 leukemia) of over 10 µM and a TGI (RXF 393 renal) of over 10 µM. The TGI (LOX IMVI melanoma) was over 10 µM, the TGI (SNB-75 CNS) was over 10 µM and the TGI (SF-539 CNS) was over 10 µM. For the same compound, the TGI (786-0 renal) was over 10 µM.
